The target of the assay is T1, IGF-1R (Homo sapiens, UniProt P08069).
T1 construct: expressed in transfected cells; host or cells: Hek293 (Hek293-IGF1R)
T1 sequence (P08069 31-1367): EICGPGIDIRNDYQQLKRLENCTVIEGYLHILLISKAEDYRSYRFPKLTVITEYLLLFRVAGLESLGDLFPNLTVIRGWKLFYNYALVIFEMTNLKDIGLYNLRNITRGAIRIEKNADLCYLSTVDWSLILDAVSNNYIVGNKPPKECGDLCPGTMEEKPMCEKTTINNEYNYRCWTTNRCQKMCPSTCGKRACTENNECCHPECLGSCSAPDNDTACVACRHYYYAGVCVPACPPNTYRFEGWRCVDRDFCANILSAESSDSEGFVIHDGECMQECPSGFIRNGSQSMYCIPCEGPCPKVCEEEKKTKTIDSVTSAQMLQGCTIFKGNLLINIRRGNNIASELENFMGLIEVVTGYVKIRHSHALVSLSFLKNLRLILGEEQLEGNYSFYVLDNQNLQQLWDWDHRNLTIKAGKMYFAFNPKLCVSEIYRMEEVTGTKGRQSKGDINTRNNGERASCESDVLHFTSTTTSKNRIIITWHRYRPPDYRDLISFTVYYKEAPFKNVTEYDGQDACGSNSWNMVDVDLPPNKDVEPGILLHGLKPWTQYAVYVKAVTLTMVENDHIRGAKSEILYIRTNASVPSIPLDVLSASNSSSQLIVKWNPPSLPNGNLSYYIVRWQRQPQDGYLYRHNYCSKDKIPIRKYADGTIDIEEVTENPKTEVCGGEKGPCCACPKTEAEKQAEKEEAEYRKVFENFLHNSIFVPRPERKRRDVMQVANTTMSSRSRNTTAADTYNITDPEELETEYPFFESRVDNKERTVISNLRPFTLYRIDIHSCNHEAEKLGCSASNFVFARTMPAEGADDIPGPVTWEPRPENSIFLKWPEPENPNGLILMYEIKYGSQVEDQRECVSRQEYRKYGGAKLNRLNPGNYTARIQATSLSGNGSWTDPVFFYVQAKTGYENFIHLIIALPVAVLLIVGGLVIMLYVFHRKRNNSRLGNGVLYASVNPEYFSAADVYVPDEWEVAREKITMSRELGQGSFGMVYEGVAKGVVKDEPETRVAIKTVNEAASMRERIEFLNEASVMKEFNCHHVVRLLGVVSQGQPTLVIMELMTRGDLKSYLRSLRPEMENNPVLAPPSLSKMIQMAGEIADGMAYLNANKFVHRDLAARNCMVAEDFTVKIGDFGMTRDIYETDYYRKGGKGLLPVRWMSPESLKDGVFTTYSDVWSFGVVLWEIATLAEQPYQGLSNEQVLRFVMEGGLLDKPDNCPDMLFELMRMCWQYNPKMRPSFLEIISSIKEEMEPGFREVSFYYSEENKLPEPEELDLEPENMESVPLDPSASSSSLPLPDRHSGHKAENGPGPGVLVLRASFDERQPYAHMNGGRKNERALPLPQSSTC
Kind of assay: Cellular IGF-1R assay: capture ELISA (MSD) of receptor phosphorylation in Hek293 cells. The class given is cell-based. The note with it: Hek293-IGF1R cells, 1 h pre-incubation, 10 min IGF stimulation, pIGF1R capture ELISA. An outline of the steps: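 IC50 from 4-parameter fit of IGF1R phosphorylation, normalised to IGF-stimulated and unstimulated controls, measured by MSD capture ELISA on lysates. Hek293-IGF1R cells in starvation medium got compound 1 h (top 10 μM, 3-fold steps, 0.1% DMSO) before a 10 min pulse of 1.0 ng/μL IGF.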
Take `CC1(C)CCC(COc2cccc(-c3cn(C4CC(CN5CC(F)C5)C4)c4ncnc(N)c34)c2)O1` (stereo not drawn) [Example 40, 5-(cis-3-((5,5-dimethyltetrahydrofuran-2-yl)methoxy)phenyl)-7-(3-((3-fluoroazetidin-1-yl)methyl)cyclobutyl)-7H-pyrrolo[2,3-d]pyrimidin-4-amine]: the IC50 was 39 to 52 nM. Turning to `Nc1nccn2c1c(-c1cccc(OCC3CCCCO3)c1)nc2[C@H]1C[C@@H](CN2CCS(=O)(=O)CC2)C1` (stereo partly drawn) [Example 30, 3-[cis-3-(1,1-Dioxothiomorpholin-4-ylmethyl)-cyclobutyl]-1-[3-(tetrahydro-pyran-2-ylmethoxy)-phenyl]-imidazo[1,5-a]pyrazin-8-ylamine], the IC50 turned out to be 254 nM.

`Nc1ncnc2c1c(-c1cccc(OCC34CCC(CC3)O4)c1)cn2[C@H]1CC[C@@H](CN2CC[S+]([O-])CC2)CC1` [Example 115, 5-[3-(7-Oxa-bicyclo[2.2.1]hept-1-ylmethoxy)-phenyl]-7-cis-[4-(1-oxo-1λ4-thiomorpholin-4-ylmethyl)-cyclohexyl]-7H-pyrrolo[2,3-d]pyrimidin-4-ylamine] registered a half-inhibitory concentration (IC50) of 287 nM.

As for `CN1CCN([C@H]2C[C@H](n3cc(-c4cccc(OCC56CCC(CC5)O6)c4)c4c(N)ncnc43)C2)CC1=O` (relative stereo) [Example 196, 4-(trans-3-{4-Amino-5-[3-(7-oxa-bicyclo[2.2.1]hept-1-ylmethoxy)-phenyl]-pyrrolo[2,3-d]pyrimidin-7-yl}cyclobutyl)-1-methyl-piperazin-2-one], inhibition was half-maximal at 192 nM (IC50). The IC50 values of the last two molecules are within 1.5-fold of each other. To `Nc1ncnc2c1c(-c1cccc(OCC34CCC(CC3)O4)c1)cn2[C@H]1C[C@H](O)C1` [Example 222, (E)-3-{4-amino-5-[3-(7-oxa-bicyclo[2.2.1]hept-1-ylmethoxy)-phenyl]-pyrrolo[2,3-d]pyrimidin-7-yl}-cyclobutanol] belongs 352 nM; to `CC1(C)CCC(COc2cccc(-c3cn([C@H]4C[C@H](CN5CC[C@@H](O)[C@H]5C(N)=O)C4)c4ncnc(N)c34)c2)O1` (stereo partly drawn) [Example 80, (2S,3R)-1-(trans-3-(4-amino-5-[3-(5,5-dimethyl-tetrahydro-furan-2-ylmethoxy)-phenyl]-pyrrolo[2,3-d]pyrimidin-7-yl}-cyclobutylmethyl)-3-hydroxy-pyrrolidine-2-carboxylic acid amide], 13 nM. In the case of `Nc1ncnc2c1c(-c1cccc(OC[C@@H]3CCCO3)c1)cn2C1CC2(CNC(=O)O2)C1` (stereo partly drawn) [Example 238, 2-(4-Amino-5-{3-[(S)-1-(tetrahydro-furan-2-yl)methoxy]-phenyl}-pyrrolo[2,3-d]pyrimidin-7-yl)-5-oxa-7-aza-spiro[3.4]octan-6-one], the half-inhibitory concentration (IC50) worked out at 366 nM. In the case of `NC(=O)[C@H]1CCCN1CC1(O)CC(n2cc(-c3cccc(OCC45CCC(CC4)O5)c3)c3c(N)ncnc32)C1` (stereo partly drawn) [Example 212, (R)-(E)-1-(3-{4-Amino-5-[3-(7-oxa-bicyclo[2.2.1]hept-1-ylmethoxy)-phenyl]-pyrrolo[2,3-d]pyrimidin-7-yl}-1-hydroxy-cyclobutylmethyl)-pyrrolidine-2-carboxylic acid amide], half-maximal inhibition (IC50) was put at 312 nM. The result for `CS(=O)(=O)N1CCN([C@H]2C[C@@H](n3cc(-c4cccc(OCC56CCC(CC5)O6)c4)c4c(N)ncnc43)C2)CC1` (relative stereo) [Example 171, 7-[cis-3-(4-methanesulfonyl-piperazin-1-yl)-cyclobutyl]-5-[3-(7-oxa-bicyclo[2.2.1]hept-1-ylmethoxy)-phenyl]-7H-pyrrolo[2,3-d]pyrimidin-4-ylamine] reads 33 nM; that for `C[C@]1(O)C[C@@H](c2nc(-c3cccc(OCC45CCC(CC4)O5)c3)c3c(N)nccn32)C1` [Example 122], 485 nM; that for `CC1(C)CCC(COc2cccc(-c3cn([C@H]4C[C@@H](CN5CC[C@@H](F)C5)C4)c4ncnc(N)c34)c2)O1` (relative stereo) [Example 52, 5-[cis-3-(5,5-dimethyl-tetrahydro-furan-2-ylmethoxy)-phenyl]-7-[3-((R)-3-fluoro-pyrrolidin-1-ylmethyl)cyclobutyl]-7H-pyrrolo[2,3-d]pyrimidin-4-ylamine], 37 nM.

Take `NC(=O)[C@@H]1[C@H](O)CCN1C[C@H]1C[C@H](n2cc(-c3cccc(OCC4CCCO4)c3)c3c(N)ncnc32)C1` (relative stereo) [Example 91, (2S,3R)-1(trans-((1R,3S)-3-(4-amino-5-(3-(tetrahydrofuran-2-yl)methoxy)phenyl)-7H-pyrrolo[2,3-d]pyrimidin-7-yl)cyclobutyl)methyl-3-hydroxylpyrrolidine-2-carboxamide]: the IC50 worked out at 108 nM. The result for `Nc1ncnc2c1c(-c1cccc(OCC3CCCO3)c1)cn2[C@H]1C[C@@H](CN2CCC(F)(F)CC2)C1` (relative stereo) [Example 83, 7-[cis-3-(4,4-difluoro-piperidin-1-ylmethyl)-cyclobutyl]-5-[3-(tetrahydro-furan-2-ylmethoxy)-phenyl]-7H-pyrrolo[2,3-d]pyrimidin-4-ylamine] reads 372 nM; that for `CN1CCN([C@H]2CC[C@@H](n3cc(-c4cccc(OCC5CCC(C)(C)O5)c4)c4c(N)ncnc43)CC2)CC1` (relative stereo) [Example 63, 5-[3-(5,5-dimethyl-tetrahydro-furan-2-ylmethoxy)-phenyl]-7-[cis-4-(4-methyl-piperazin-1-yl)-cyclohexyl]-7H-pyrrolo[2,3-d]pyrimidin-4-ylamine], 61 nM.

Regarding `CC1(C)CCC(COc2cccc(-c3cn([C@H]4C[C@@H](CN5CCSC5)C4)c4ncnc(N)c34)c2)O1` (relative stereo) [Example 70, 5-[3-(5,5-dimethyl-tetrahydro-furan-2-ylmethoxy)-phenyl]-7-(cis-3-thiazolidin-3-ylmethyl-cyclobutyl)-7H-pyrrolo[2,3-d]pyrimidin-4-ylamine], the half-maximal inhibitory concentration (IC50) was 59 nM. The result for `CC(C)C(=O)N[C@H]1CC[C@@H](n2cc(-c3cccc(OCC45CCC(CC4)O5)c3)c3c(N)ncnc32)CC1` [Example 147, N-((1S,4S)-4-(5-(3-(7-oxabicyclo[2.2.1]heptan-1-ylmethoxy)phenyl)-4-amino-7H-pyrrolo[2,3-d]pyrimidin-7-yl)cyclohexyl)isobutyramide] reads 231 nM; that for `CN1CCN(C[C@H]2CC[C@@H](n3cc(-c4cccc(OCC56CCC(CC5)O6)c4)c4c(N)ncnc43)CC2)CC1` [Example 113, 5-(3-(7-oxabicyclo[2.2.1]heptan-1-ylmethoxy)phenyl)-7-((1S,4S)-4-((4-methylpiperazin-1-yl)methyl)cyclohexyl)-7H-pyrrolo[2,3-d]pyrimidin-4-amine], 178 nM.

With `CN1CCC(N2CC[C@@H](n3cc(-c4cccc(OCC56CCC(CC5)O6)c4)c4c(N)ncnc43)C2)CC1` [Example 216, 7-[(R)-1-(1-Methyl-piperidin-4-yl)-pyrrolidin-3-yl]-5-[3-(7-oxa-bicyclo[2.2.1]hept-1-ylmethoxy)-phenyl]-7H-pyrrolo[2,3-d]pyrimidin-4-ylannine], the IC50 was determined as 80 nM. Compared with the last molecule, the IC50 is about 2.2-fold lower. The result for `NC(=O)[C@@H]1[C@H]2CC[C@H](C2)N1CC1CC(n2cc(-c3cccc(OCC45CCC(CC4)O5)c3)c3c(N)ncnc32)C1` (stereo partly drawn) [Example 104, (1R,3S,4S)-2-(((1S,3R)-3-(5-(3-(7-oxabicyclo[2.2.1]heptan-1-ylmethoxy)phenyl)-4-amino-7H-pyrrolo[2,3-d]pyrimidin-7-yl)cyclobutyl)methyl)-2-azabicyclo[2.2.1]heptane-3-carboxamide] reads 6 nM; that for `Nc1ncnc2c1c(-c1cccc(OCC34CCC(CC3)O4)c1)cn2C1CC(O)(CN2CCC(O)C2)C1` (single isomer, unassigned) [Example 203], 501 nM. The result for `Nc1ncnc2c1c(-c1cccc(OCC34CCC(CC3)O4)c1)cn2[C@H]1CC[C@H](N)CC1` (relative stereo) [Example 182, 7-(trans-4-Amino-cyclohexyl)-5-[3-(7-oxa-bicyclo[2.2.1]hept-1-ylmethoxy)-phenyl]-7H-pyrrolo[2,3-d]pyrimidin-4-ylamine] reads 211 nM; that for `COC(=O)NC[C@]1(O)C[C@H](n2cc(-c3cccc(OCC45CCC(CC4)O5)c3)c3c(N)ncnc32)C1` [Example 218, (E)-(3-{4-Amino-5-[3-(7-oxa-bicyclo[2.2.1]hept-1-ylmethoxy)-phenyl]-pyrrolo[2,3-d]pyrimidin-7-yl}-1-hydroxy-cyclobutylmethyl)-carbamic acid methyl ester], 404 nM; that for `Nc1ncnc2c1c(-c1cccc(OCC3CCCCO3)c1)cn2[C@H]1C[C@@H](CN2CC[C@H](O)C2)C1` (stereo partly drawn) [Example 34, (S)-1-(cis-3-{4-amino-5-[3-(tetrahydro-pyran-2-ylmethoxy)-phenyl]-pyrrolo[2,3-d]pyrimidin-7-yl}-cyclobutylmethyl)-pyrrolidin-3-ol], 333 nM.

Consider `Nc1ncnc2c1c(-c1cccc(OCC34CCC(CC3)O4)c1)cn2[C@H]1C[C@@]2(CNC(=O)O2)C1` [Example 169, (E)-2-{4-amino-5-[3-(7-oxa-bicyclo[2.2.1]hept-1-ylmethoxy)-phenyl]-pyrrolo[2,3-d]pyrimidin-7-yl}-5-oxa-7-aza-spiro[3.4]octan-6-one], for which the half-inhibitory concentration (IC50) was 66 nM. `Nc1ncnc2c1c(-c1cccc(OC[C@@H]3CCCO3)c1)cn2[C@H]1C[C@@H](CN2CCS(=O)(=O)CC2)C1` [Example 156, 7-[cis-3-(1,1-Dioxo-1-thiomorpholin-4-ylmethyl)-cyclobutyl]-5-{3-[(S)-1-(tetrahydro-furan-2-yl)methoxy]-phenyl}-7H-pyrrolo[2,3-d]pyrimidin-4-ylamine] returned a half-maximal inhibitory concentration (IC50) of 166 nM. `CN1CCN([C@H]2C[C@@H](c3nc(-c4cccc(OCC56CCC(CC5)O6)c4)c4c(N)nccn43)C2)CC1` [Example 181]: the IC50 was 47 nM. The result for `Nc1ncnc2c1c(-c1cccc(OCC34CCC(CC3)O4)c1)cn2C1CCC(O)(CNC2CC2)CC1` [Example 117, (1R,4R)-4-(5-(3-(7-oxabicyclo[2.2.1]heptan-1-ylmethoxy)phenyl)-4-amino-7H-pyrrolo[2,3-d]pyrimidin-7-yl)-1-((cyclopropylamino)methyl)cyclohexanol] reads 160 nM.

For the origin of these results see US20120165310A1, “ETHER DERIVATIVES OF BICYCLIC HETEROARYLS” (NOVARTIS AG, priority 2009, published 2012).
